Laboratory results reported in US10280170B2, “Substituted 4,5,6,7-tetrahydro-pyrazolo[1,5-a]pyrazine derivatives and 5,6,7,8-tetrahydro-4H-pyrazolo[1,5-a][1,4]diazepine derivatives as Ros1 inhibitors” (Janssen Pharmaceutica NV, priority 2014, dated 2019).
Read-outs that look alike come from different tables or passages of the source.

Experiments:
[1] = system: HCC78 non-small cell lung cancer cells; test: HCC78 cell proliferation assay; assay type: cell-based; conditions: for EC50: Homo sapiens, HCC78, 96 h, read-out: HCC-78 PROL pEC50 (converted)
Description: HCC78 Cell Proliferation Assay
Approximately 1000 HCC78 non-small cell lung cancer cells in 180 μl of cell culture medium (RPMI-1640, 10% FBS, 2 mM L-Glutamine, 10 mM Hepes, 1 mM sodium pyruvate, 4.5 g/L glucose, 1.5 g/L sodium bicarbonate, 25 μg/ml Gentamycin) were seeded in each well of a 96-well polystyrene, tissue-culture treated plate and incubated at 37° C. and 5% CO2. After 24 hours, compounds were diluted in cell culture medium from which 20 μl was added to the wells containing cells and incubated for 4 days at 37° C. and 5% CO2. A 5 mg/ml solution of the tetrazolium dye MTT was prepared in PBS (phosphate-buffered saline) and 25 μl was added to each well. After 2 hours the medium was removed and replaced by 125 μL of 4/1 DMSO/glycine buffer (0.1M glycine, 0.1M NaCl, pH 10.5) before absorbance was determined at 538 nm.

[2] = system: Ba/F3 cells containing Ros1 wild-type protein + IL-3; test: Ba/F3-Ros1 cell proliferation counter-screen, wild-type protein in the presence of 10 ng/ml murine IL-3; assay type: cell-based; conditions: Mus musculus, BaF3, 24 h, read-out: BaF3-ROS1 + IL3 pIC50 (converted)
Description: (§1) This assay was carried out with Ba/F3 cells containing three different versions of Ros1: the wild-type protein, protein with a mutation at the gatekeeper residue (L2026M), and protein with a mutation identified in a tumor from a patient that became resistant to crizotinib (Xalkori®) treatment (G2032R). Compounds were solubilized in 100% DMSO (dimethyl sulfoxide) and sprayed into polystyrene, tissue culture treated 384-well plates. A 50 μl volume of cell culture medium (phenol red free RPMI-1640, 10% FBS (fetal bovine serum), 2 mM L-Glutamine) containing 20000 Ba/F3-Ros1 cells was added to each well and the plates were placed in an incubator at 37° C. and 5% CO2. After 24 hours, 10 μl of Alamar Blue solution (0.5 mM K3Fe(CN)6, 0.5 mM K4Fe(CN)6, 0.15 mM Resazurin and 100 mM Phosphate Buffer) was added to the wells, incubated for 4 hours at 37° C. and 5% CO2 before RFU's (Relative Fluorescence Units) (ex. 540 nm., em. 590 nm.) were measured in a fluorescence plate reader.
As a counter-screen the same experiment was performed for the wild-type protein in the presence of 10 ng/ml murine IL-3.

[3] = target: T1, Ros1 enzyme (Homo sapiens, UniProt P08922); test: Ros1 enzymatic assay; assay type: biochemical; conditions: Ros1 enzymatic assay; read-out: ROS1 pIC50 (converted)
T1 construct: 0.5 μg/ml Ros1 enzyme
Description: Compounds were spotted onto white 384-well Proxiplate plus plates (Perkin Elmer) to which 5 μl of enzyme mix (0.5 μg/ml Ros1 enzyme, 50 mM Tris-HCl pH7.5, 1 mM EGTA, 10 mM MgCl2, 0.01% Tween-20) and 5 μl of substrate mix (6 μg/ml IRS-Tide [American Peptide Company], 20 μM ATP, 13.33 μCi/ml ATP (adenosine 5′-triphosphate) P^33, 50 mM Tris-HCl pH7.5, 1 mM EGTA (ethylene glycol-bis(2-aminoethylether)-N,N,N′,N′-tetraacetic acid), 10 mM MgCl2, 0.01% Tween-20) were added. After incubation for 120 minutes at room temperature, 10 μl of stop reaction buffer (5 mM EDTA, 50 μM ATP, 0.1% BSA (bovine serum albumin), 0.1% Triton X-100, 50 mM Tris-HCl pH7.5, 1 mM EGTA, 10 mM MgCl2, 0.01% Tween-20) containing 2 mg/ml streptavidin coupled polystyrene imaging beads (Amersham Biosciences) was added and incubated for 15 minutes at room temperature. Plates were centrifuged for 3 minutes at 1500 rpm and signals detected in a LEADseeker imaging system (GE).

[4] = target: T2, Ba/F3 cells containing Ros1 wild-type protein (Homo sapiens, UniProt P08922, cells depend on it, form not given); test: Ba/F3-Ros1 cell proliferation assay, wild-type Ros1; assay type: cell-based, murine; conditions: without IL-3
T2 construct: The background only speaks of 'a number of different unrelated proteins' and names SLC34A2-ROS1 for HCC78 cells
Description: (§2) Ba/F3-Ros1 Cell Proliferation Assay
as §1

[5] = target: Ba/F3 cells containing Ros1 with a mutation at the gatekeeper residue (L2026M) (Homo sapiens, UniProt P08922, L2026M, cells depend on it, form not given); test: Ba/F3-Ros1 cell proliferation assay, L2026M gatekeeper mutant; assay type: cell-based, murine; conditions: without IL-3
Description: as §2, §1

[6] = counter-screen, wild-type, 10 ng/ml murine IL-3

T1 sequence (P08922 28-2347): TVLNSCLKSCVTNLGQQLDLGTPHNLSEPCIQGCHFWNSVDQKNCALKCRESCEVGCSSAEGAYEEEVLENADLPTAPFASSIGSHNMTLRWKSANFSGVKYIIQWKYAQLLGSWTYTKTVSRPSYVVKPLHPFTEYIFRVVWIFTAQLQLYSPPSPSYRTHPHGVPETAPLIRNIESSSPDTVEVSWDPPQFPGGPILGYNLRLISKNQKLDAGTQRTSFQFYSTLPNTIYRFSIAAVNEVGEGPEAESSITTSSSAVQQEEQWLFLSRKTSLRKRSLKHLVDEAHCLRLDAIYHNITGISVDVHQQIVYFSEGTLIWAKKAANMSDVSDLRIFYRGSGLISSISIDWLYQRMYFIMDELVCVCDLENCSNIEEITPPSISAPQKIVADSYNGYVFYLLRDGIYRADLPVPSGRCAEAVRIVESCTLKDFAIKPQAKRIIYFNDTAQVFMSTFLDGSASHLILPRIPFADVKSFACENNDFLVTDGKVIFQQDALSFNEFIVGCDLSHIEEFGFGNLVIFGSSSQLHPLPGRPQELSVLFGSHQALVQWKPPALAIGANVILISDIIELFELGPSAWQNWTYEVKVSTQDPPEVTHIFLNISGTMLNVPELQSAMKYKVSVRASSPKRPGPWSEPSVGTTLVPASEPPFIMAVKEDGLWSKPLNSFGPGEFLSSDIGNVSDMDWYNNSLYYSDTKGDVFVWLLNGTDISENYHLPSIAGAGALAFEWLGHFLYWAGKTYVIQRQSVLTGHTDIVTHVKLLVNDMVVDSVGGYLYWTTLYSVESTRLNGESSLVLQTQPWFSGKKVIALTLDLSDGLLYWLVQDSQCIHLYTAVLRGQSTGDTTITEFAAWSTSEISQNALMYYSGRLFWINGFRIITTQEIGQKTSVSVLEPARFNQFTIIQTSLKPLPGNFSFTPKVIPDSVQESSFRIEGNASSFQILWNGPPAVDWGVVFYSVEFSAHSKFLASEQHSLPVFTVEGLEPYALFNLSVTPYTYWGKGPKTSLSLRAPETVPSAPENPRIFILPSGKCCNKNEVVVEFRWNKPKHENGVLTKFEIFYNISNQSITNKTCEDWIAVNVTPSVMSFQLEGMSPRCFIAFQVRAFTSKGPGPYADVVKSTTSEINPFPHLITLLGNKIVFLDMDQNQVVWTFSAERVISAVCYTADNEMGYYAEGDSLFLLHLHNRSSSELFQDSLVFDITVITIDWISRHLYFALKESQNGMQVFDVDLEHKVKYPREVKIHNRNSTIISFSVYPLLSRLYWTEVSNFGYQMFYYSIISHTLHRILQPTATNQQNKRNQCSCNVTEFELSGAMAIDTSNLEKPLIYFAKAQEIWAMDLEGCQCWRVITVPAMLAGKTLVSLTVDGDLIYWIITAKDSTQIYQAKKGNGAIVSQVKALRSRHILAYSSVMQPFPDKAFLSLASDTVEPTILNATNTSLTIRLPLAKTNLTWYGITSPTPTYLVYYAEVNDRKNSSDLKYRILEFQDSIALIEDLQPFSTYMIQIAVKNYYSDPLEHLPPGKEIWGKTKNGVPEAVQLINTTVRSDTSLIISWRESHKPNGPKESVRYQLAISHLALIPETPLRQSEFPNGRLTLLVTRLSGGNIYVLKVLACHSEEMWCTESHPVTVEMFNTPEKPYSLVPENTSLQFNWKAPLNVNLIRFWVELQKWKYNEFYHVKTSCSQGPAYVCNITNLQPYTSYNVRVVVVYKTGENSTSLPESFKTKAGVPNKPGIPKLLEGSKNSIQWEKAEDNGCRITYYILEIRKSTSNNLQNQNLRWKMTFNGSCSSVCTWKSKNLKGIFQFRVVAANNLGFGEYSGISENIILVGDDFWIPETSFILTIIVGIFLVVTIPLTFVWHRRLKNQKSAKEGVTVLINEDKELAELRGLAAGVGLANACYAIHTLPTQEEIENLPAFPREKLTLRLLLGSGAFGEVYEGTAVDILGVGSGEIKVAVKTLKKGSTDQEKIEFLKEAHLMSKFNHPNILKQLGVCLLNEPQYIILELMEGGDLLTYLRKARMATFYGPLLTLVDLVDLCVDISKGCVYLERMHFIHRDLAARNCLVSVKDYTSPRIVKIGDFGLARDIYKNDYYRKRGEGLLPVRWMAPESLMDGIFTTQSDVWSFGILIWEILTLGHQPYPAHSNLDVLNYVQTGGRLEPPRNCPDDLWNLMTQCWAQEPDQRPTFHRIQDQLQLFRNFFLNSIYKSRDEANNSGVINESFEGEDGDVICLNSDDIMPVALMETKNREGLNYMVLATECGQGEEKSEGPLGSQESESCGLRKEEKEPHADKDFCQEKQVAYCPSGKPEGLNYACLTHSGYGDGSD
Chain of Ba/F3 cells containing Ros1 with a mutation at the gatekeeper residue (L2026M) (P08922 whole entry L2026M, form open): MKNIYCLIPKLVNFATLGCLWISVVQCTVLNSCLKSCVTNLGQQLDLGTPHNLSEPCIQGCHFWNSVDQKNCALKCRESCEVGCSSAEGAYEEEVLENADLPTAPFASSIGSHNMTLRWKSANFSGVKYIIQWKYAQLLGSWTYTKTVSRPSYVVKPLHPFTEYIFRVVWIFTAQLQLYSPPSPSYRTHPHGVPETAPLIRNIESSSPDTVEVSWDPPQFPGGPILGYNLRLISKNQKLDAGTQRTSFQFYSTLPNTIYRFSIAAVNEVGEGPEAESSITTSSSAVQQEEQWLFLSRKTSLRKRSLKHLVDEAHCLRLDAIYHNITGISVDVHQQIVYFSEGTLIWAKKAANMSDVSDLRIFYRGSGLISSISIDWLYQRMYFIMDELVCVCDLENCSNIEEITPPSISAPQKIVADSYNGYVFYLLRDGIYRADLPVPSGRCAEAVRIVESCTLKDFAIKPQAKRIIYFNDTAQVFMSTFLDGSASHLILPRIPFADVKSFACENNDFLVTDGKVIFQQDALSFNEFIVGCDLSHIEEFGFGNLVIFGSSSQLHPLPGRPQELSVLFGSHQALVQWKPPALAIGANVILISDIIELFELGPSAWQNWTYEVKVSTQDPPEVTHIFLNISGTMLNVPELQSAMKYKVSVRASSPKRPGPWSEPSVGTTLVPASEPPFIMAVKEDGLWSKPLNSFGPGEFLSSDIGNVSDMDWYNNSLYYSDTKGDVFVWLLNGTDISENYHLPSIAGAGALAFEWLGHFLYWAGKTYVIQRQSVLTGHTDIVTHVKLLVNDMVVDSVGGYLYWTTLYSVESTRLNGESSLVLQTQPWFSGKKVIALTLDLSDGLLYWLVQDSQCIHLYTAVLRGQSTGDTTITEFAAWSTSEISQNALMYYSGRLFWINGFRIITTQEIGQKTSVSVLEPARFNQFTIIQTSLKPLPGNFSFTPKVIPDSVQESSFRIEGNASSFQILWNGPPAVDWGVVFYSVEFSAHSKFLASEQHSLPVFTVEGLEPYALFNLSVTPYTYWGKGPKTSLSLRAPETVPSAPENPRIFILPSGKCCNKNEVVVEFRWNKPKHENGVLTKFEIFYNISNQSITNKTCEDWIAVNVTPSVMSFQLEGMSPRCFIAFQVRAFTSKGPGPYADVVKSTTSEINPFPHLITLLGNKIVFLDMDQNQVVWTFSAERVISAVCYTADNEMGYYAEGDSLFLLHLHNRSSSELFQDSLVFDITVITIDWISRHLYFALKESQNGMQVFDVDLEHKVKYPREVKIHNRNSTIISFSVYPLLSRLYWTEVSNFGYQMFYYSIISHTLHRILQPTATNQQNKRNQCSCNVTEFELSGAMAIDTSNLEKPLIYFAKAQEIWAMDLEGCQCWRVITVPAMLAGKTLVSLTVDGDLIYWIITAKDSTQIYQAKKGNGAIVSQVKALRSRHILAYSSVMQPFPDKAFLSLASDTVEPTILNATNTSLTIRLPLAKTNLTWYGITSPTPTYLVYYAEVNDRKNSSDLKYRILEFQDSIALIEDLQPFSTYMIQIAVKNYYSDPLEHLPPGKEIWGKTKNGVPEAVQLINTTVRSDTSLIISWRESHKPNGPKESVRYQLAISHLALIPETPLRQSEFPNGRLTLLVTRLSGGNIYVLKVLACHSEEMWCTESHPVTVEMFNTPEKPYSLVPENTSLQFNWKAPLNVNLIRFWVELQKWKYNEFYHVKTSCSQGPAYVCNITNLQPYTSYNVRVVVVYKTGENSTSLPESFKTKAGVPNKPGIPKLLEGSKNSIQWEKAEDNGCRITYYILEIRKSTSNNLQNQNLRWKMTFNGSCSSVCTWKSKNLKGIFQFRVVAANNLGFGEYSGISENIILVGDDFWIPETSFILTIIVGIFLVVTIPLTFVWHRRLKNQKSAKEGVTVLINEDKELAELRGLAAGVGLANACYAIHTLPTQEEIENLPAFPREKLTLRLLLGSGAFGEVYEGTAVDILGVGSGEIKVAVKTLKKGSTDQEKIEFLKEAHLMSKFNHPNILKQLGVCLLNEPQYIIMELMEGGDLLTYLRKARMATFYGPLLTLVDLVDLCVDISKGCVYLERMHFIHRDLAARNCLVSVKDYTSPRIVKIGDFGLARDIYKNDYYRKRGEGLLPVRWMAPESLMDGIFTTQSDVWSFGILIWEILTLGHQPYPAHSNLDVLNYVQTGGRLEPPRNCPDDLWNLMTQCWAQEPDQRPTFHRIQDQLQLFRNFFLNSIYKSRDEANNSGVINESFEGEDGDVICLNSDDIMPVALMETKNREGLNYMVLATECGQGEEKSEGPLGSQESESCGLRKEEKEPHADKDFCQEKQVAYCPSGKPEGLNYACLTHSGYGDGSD
T2 sequence (P08922 whole entry, stated change not applied): as the sequence (P08922 whole entry L2026M, form open) above, with M2026L counted along it

| Compound | HCC-78 PROL pEC50 ([1]; HCC78 cells, 4 days, MTT) | CC50 [2, 6] [µM] | IC50 [3] [µM] | BaF3-ROS1-IL3 pIC50 [4] | Ba/F3 Ros1 L2026M (-IL-3) pIC50 [5] | EC50 [1] [µM] | CC50 [2] [µM] | EC50 ([1]; HCC78 cells, 4 days, MTT) [µM] |
| --- | --- | --- | --- | --- | --- | --- | --- | --- |
| CC(C)c1ccc(COc2ccc(-c3c(-c4ccncc4)nn4c3C(=O)N(C(C)CO)CC4)cc2)cc1 (single isomer, unassigned) [Compound 39] | 6.8 | > 10 | 0.0794 | 7.3 | 7.0 |  |  |  |
| CC(C)c1ccc(COc2cc(F)c(-c3c(-c4ccncc4)nn4c3C(=O)NCC4)cc2F)cc1 [Compound 14] |  |  | 0.00631 | 7.8 | 8.2 | < 0.0316 | > 10 |  |
| CC(C)c1ccc(COc2c(F)cc(-c3c(-c4ccncc4)nn4c3C(=O)NCC4)cc2F)cc1 [Compound 15] |  |  | 0.0398 | 7.5 | 7.5 | 0.0501 | > 10 |  |
| Cc1cc(-c2c(-c3ccncc3)nn3c2C(=O)N(CCO)CC3)ccc1OCc1ccc(C(C)C)cc1 [Compound 31] |  |  | 1.58 | 6.3 | 5.9 | 6.31 | > 10 |  |
| CC(C)c1ccc(COc2ccc(-c3c(-c4ccncc4)nn4c3C(=O)N(CC3CNC(=O)O3)CC4)cc2)cc1 (centres unmarked) [Compound 56] |  |  | 0.0398 | 7.5 | 7.0 | 0.126 | > 10 |  |
| CC(C)c1ccc(COc2ccc(-c3c(-c4ccncc4)nn4c3C(=O)N(CCCN)CC4)cc2)cc1 [Compound 58] |  | 6.31 | 0.02 | 7.3 | 7.0 |  |  | 1 |
| CC(C)c1ccc(COc2ccc(-c3c(-c4ccncc4)nn4c3C(=O)N(CCN)CC4)cc2)cc1 [Compound 59] |  | 5.01 | 0.0631 | 6.4 | ~6.1 |  |  | 0.501 |
| CNCCN1CCn2nc(-c3ccncc3)c(-c3ccc(OCc4ccc(C(C)C)cc4)cc3)c2C1=O [Compound 60] |  | 3.98 | 0.0631 | 6.6 | 6.2 |  |  | 0.631 |
| CC(C)c1ccc(COc2ccc(-c3c(-c4ccncc4)nn4c3C(=O)N(CCNCC(F)(F)F)CC4)cc2)cc1 [Compound 62] |  |  | 0.2 | 7.0 | 6.6 | 0.501 | > 10 |  |
| CC(=O)OC(C)CN1CCn2nc(-c3ccncc3)c(-c3ccc(OCc4ccc(C(C)C)cc4)cc3)c2C1=O (centres unmarked) [Compound 69] |  | > 10 | 0.0631 | 7.4 | <5 |  |  | 0.2 |
| CC(C)c1ccc(CC(=O)N2CC=C(c3c(-c4ccncc4)nn4c3C(=O)NCC4)CC2)cc1 [Compound 77] |  |  | 0.316 | 6.3 | 6.3 | 2 | > 10 |  |
| CC(C)c1ccc(COc2ccc(-c3c(-c4ccncc4)nn4c3C(=O)NCC4)cc2)cc1CN [Compound 86] |  | > 10 | 0.01 | 7.2 | 6.9 |  |  | 0.501 |
| CC(C)c1ccc(COc2ccc(-c3c(-c4ccncc4)nn4c3C(=O)NCC4)cc2)cc1OCCO [Compound 89] |  |  | 0.0316 | 7.6 | 7.1 | 0.2 | > 10 |  |
